Earlier results as cited in patent US8137922B2, “Method for diagnosing the metabolic syndrome (MS)” (Hans Dieplinger, priority 2007, dated 2012).
Like-named read-outs stand apart in the source and are kept apart here.

Biological target: T1, afamin (Homo sapiens, UniProt P43652)
T1 sequence (P43652 22-599): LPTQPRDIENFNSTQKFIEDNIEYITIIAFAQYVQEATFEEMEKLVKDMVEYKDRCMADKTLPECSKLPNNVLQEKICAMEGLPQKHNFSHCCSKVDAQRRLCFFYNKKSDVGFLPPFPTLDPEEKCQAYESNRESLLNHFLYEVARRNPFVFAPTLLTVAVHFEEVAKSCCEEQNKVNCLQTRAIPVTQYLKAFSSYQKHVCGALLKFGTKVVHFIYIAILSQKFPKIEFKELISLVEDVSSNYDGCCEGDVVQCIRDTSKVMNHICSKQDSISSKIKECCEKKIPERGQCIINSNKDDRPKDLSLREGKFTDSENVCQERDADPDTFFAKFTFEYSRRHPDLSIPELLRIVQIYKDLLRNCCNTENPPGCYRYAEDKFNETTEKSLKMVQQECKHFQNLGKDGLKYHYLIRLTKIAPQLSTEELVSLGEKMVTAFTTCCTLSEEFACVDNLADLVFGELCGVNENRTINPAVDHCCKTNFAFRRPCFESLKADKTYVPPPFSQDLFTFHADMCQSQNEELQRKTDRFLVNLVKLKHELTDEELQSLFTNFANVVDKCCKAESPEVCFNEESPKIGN
Conditions: for maximum displacement of tocopherol: 2 μM afamin, 60 μM alpha-[14C]tocopherol, 100-fold excess of non-labeled competitor

Row | Hill coefficient (calculated, indicates that afamin could bind pairs of tocopherol) | Kd (first of two binding sites, read-out: KD1, affinity of afamin for vitamin E) [µM] | Kd (second of two binding sites, read-out: KD2, affinity of afamin for vitamin E) [µM] | maximal binding (Bmax) (when both sites are activated) | Compound | maximum displacement of tocopherol [%]
1 |  |  |  |  | Cc1c(C)c2c(c(C)c1O)CC[C@@](C)(CCC[C@H](C)CCC[C@H](C)CCCC(C)C)O2 [alpha-tocopherol] | 80
2 |  |  |  |  | Cc1c(O)cc2c(c1C)O[C@](C)(CCC[C@H](C)CCC[C@H](C)CCCC(C)C)CC2 [gamma-tocopherol] | 80
3 | 1.8 | 6.3 | 22 | 18 molecules of Vitamin E | vitamin E | 
